Source: patent US11213499B1, “Use of 3,3′-diselenodipropionic acid (DSePA) as an anticancer agent” (Secretary, Department of Atomic Energy, priority 2020, dated 2022)

Test system: human A549 xenograft
Experiment: Anti-tumor effect in human A549 xenograft model
Assay type: in vivo
Conditions: for mortality: study period of 30 days
Protocol: These xenografts representative of NSCLC and CML respectively are considered to be highly aggressive and resistant to chemotherapy treatment. Therefore, any new chemotherapy agent against these cancers is very much sought. For the experiment, a total of 12 mice bearing A549 or K562 tumors of volume in the range of ˜50 mm^3 were divided into two groups (I & II), each group comprising of six mice. […] The group II was administered DSePA daily dissolved in sterile saline through oral route at a dosage of 1 mg/Kg body weight. The tumor volume and body weight of mice from each group were monitored daily for a total period of 30 days from the day of start. The animals were also checked for mortality if any throughout the study period. The experiment in A549 tumor was repeated three times (n=18 for each group) and the experiment in K562 tumor was repeated two times (n=12 for each group). […] This is the first study to show the anticancer activity of DSePA per se using xenograft model of human lung cancer (A549) and human leukemia (K562) cells in mice. Discovery of the application of the anticancer activity of DSePA is a novel invention in context of its probable usage in treatment for lung and leukemia cancer. More specifically the invention proposes a treatment regime and route of administering DSePA to inhibit the growth of human NSCLC (A549) and CML (K562).
For the optimization of the oral dosage of DSePA, a total of 24 mice bearing A549 or K562 xenograft of volume in the range of ˜50 mm^3 were divided into four groups (I-IV), each group comprising of six mice. […] The groups II, III and IV were administered DSePA dissolved in sterile saline through oral route at the dosage of 1, 2.5 and 5 mg/kg body weight respectively. The administration of DSePA was performed daily for 4 weeks. The tumor volume and body weight of mice from each group were monitored daily for a total period of 30 days from the day of start. The animals were also checked for mortality if any throughout the study period.
Animal maintenance—All animal studies were approved by the Institutional Animal Ethics Committee. Animals were housed under standard conditions (20±2° C., 65-70% humidity, 12 h/12 h day/night cycle, balanced laboratory diet and tap water ad libitum.
Xenograft tumor model-A549 and K562 tumor models were developed by Anticancer Drug Screening Facility of Advanced Centre for Treatment, Research and Education in Cancer (ACTREC), India. Briefly, Male/female NOD-SCID aged 6-7 weeks were housed in the laboratory animal facility of ACTREC. Donor mice carrying K562 or A549 xenografts were developed by injecting 2×10^6 cells in 100 μl of DMEM/RPMI, subcutaneously in their right flank. When tumors attained the size of approximately 2000 mm^3, the animals were sacrificed. Tumors were obtained and further cut into 2-3 mm fragments and implanted subcutaneously in the right flank of 6-7 weeks old recipient SCID mice. Tumors were allowed to grow to a size of approximately 50 mm^3 following which animals were divided into groups of six animals each for evaluation. A fresh DSePA solution was prepared by dissolution in sterile saline before each administration by intraperitoneal/oral route. The tumor efficacy of DSePA was determined by monitoring parameters like tumor volume and T/C. Tumors were assumed spherical and volume was calculated using following equations (1 & 2): […]
Where d1 (mm) and d2 (mm) are diameters measured in two perpendicular planes. T/C is defined as the ratio of the mean tumor volume of DSePA treated groups with the mean tumor volume of control group on the day of observation.

[1] = 1 mg/kg body weight daily oral, day 1
[2] = 1 mg/kg body weight daily oral, day 5
[3] = 1 mg/kg body weight daily oral, day 9
[4] = 1 mg/kg body weight daily oral, day 12
[5] = 1 mg/kg body weight daily oral, day 15
[6] = 1 mg/kg body weight daily oral, day 18
[7] = 1 mg/kg body weight daily oral, day 21
[8] = 1 mg/kg body weight daily oral, day 24
[9] = 1 mg/kg body weight daily oral, day 27
[10] = 1 mg/kg body weight daily oral, day 31
[11] = 2.5 mg/kg body weight daily oral, day 1
[12] = 2.5 mg/kg body weight daily oral, day 5
[13] = 2.5 mg/kg body weight daily oral, day 9
[14] = 2.5 mg/kg body weight daily oral, day 12
[15] = 2.5 mg/kg body weight daily oral, day 15
[16] = 2.5 mg/kg body weight daily oral, day 18
[17] = 2.5 mg/kg body weight daily oral, day 21
[18] = 2.5 mg/kg body weight daily oral, day 24
[19] = 2.5 mg/kg body weight daily oral, day 27
[20] = 2.5 mg/kg body weight daily oral, day 31
[21] = 5 mg/kg body weight daily oral, day 1
[22] = 5 mg/kg body weight daily oral, day 5
[23] = 5 mg/kg body weight daily oral, day 9
[24] = 5 mg/kg body weight daily oral, day 12
[25] = 5 mg/kg body weight daily oral, day 15
[26] = 5 mg/kg body weight daily oral, day 18
[27] = 5 mg/kg body weight daily oral, day 21
[28] = 5 mg/kg body weight daily oral, day 24
[29] = 5 mg/kg body weight daily oral, day 27
[30] = 5 mg/kg body weight daily oral, day 31

With `O=C(O)CC[Se][Se]CCC(=O)O` [DSePA, 3,3′-diselenodipropionic acid] the “tumor growth inhibition vs control” value (1 mg/Kg body weight daily oral, three independent experiments) was “significantly (P<0.05) inhibited the growth”, the “overall reduction (relative tumor volume vs tumor control)” value (1 mg/Kg orally daily, end of study period (30 days), n=18, P=0.0009) was roughly 2 folds and the mortality (1 mg/Kg orally daily, three independent studies) was “did not show any mortality”. The “% S (Survival)” value [1] was 100%, the “RTV (Relative Tumor Volume)” value [1] was 1 and the “T/C (T (test)/C (control))” value [1] was 1. The “% S (Survival)” value [2] was 100%, the “RTV (Relative Tumor Volume)” value [2] was 1.23 and the “T/C (T (test)/C (control))” value [2] was 0.98. The “% S (Survival)” value [3] was 100%, the “RTV (Relative Tumor Volume)” value [3] was 1.64 and the “T/C (T (test)/C (control))” value [3] was 0.98. For the same molecule, the “% S (Survival)” value [4] was 100%, the “RTV (Relative Tumor Volume)” value [4] was 1.83 and the “T/C (T (test)/C (control))” value [4] was 0.87. For the same molecule, the “% S (Survival)” value [5] was 100%, the “RTV (Relative Tumor Volume)” value [5] was 1.80 and the “T/C (T (test)/C (control))” value [5] was 0.76. For the same molecule, the “% S (Survival)” value [6] was 100%, the “RTV (Relative Tumor Volume)” value [6] was 2.36 and the “T/C (T (test)/C (control))” value [6] was 0.71. For the same molecule, the “% S (Survival)” value [7] was 100%, the “RTV (Relative Tumor Volume)” value [7] was 2.47 and the “T/C (T (test)/C (control))” value [7] was 0.68. For the same molecule, the “% S (Survival)” value [8] was 100%, the “RTV (Relative Tumor Volume)” value [8] was 2.66 and the “T/C (T (test)/C (control))” value [8] was 0.52. For the same molecule, the “% S (Survival)” value [9] was 100%, the “RTV (Relative Tumor Volume)” value [9] was 2.94 and the “T/C (T (test)/C (control))” value [9] was 0.47. The “% S (Survival)” value [10] was 100%, the “RTV (Relative Tumor Volume)” value [10] was 3.70 and the “T/C (T (test)/C (control))” value [10] was 0.45. The “% S (Survival)” value [11] was 100%, the “RTV (Relative Tumor Volume)” value [11] was 1 and the “T/C (T (test)/C (control))” value [11] was 1. The “% S (Survival)” value [12] was 100%, the “RTV (Relative Tumor Volume)” value [12] was 0.99 and the “T/C (T (test)/C (control))” value [12] was 0.79. For the same molecule, the “% S (Survival)” value [13] was 100%, the “RTV (Relative Tumor Volume)” value [13] was 1.10 and the “T/C (T (test)/C (control))” value [13] was 0.66. The “% S (Survival)” value [14] was 100%, the “RTV (Relative Tumor Volume)” value [14] was 1.25 and the “T/C (T (test)/C (control))” value [14] was 0.59. The “% S (Survival)” value [15] was 100%, the “RTV (Relative Tumor Volume)” value [15] was 1.03 and the “T/C (T (test)/C (control))” value [15] was 0.43. For the same molecule, the “% S (Survival)” value [16] was 100%, the “RTV (Relative Tumor Volume)” value [16] was 1.31 and the “T/C (T (test)/C (control))” value [16] was 0.39. The “% S (Survival)” value [17] was 100%, the “RTV (Relative Tumor Volume)” value [17] was 1.40 and the “T/C (T (test)/C (control))” value [17] was 0.38. For the same molecule, the “% S (Survival)” value [18] was 100%, the “RTV (Relative Tumor Volume)” value [18] was 1.81 and the “T/C (T (test)/C (control))” value [18] was 0.35. The “% S (Survival)” value [19] was 100%, the “RTV (Relative Tumor Volume)” value [19] was 1.96 and the “T/C (T (test)/C (control))” value [19] was 0.31. The “% S (Survival)” value [20] was 100%, the “RTV (Relative Tumor Volume)” value [20] was 2.84 and the “T/C (T (test)/C (control))” value [20] was 0.35. The “% S (Survival)” value [21] was 100%, the “RTV (Relative Tumor Volume)” value [21] was 1 and the “T/C (T (test)/C (control))” value [21] was 1. The “% S (Survival)” value [22] was 100%, the “RTV (Relative Tumor Volume)” value [22] was 0.94 and the “T/C (T (test)/C (control))” value [22] was 0.75. The “% S (Survival)” value [23] was 100%, the “RTV (Relative Tumor Volume)” value [23] was 1.29 and the “T/C (T (test)/C (control))” value [23] was 0.76. For the same molecule, the “% S (Survival)” value [24] was 100%, the “RTV (Relative Tumor Volume)” value [24] was 1.30 and the “T/C (T (test)/C (control))” value [24] was 0.62. The “% S (Survival)” value [25] was 100%, the “RTV (Relative Tumor Volume)” value [25] was 1.19 and the “T/C (T (test)/C (control))” value [25] was 0.50. For the same molecule, the “% S (Survival)” value [26] was 100%, the “RTV (Relative Tumor Volume)” value [26] was 2.22 and the “T/C (T (test)/C (control))” value [26] was 0.67. The “% S (Survival)” value [27] was 100%, the “RTV (Relative Tumor Volume)” value [27] was 2.34 and the “T/C (T (test)/C (control))” value [27] was 0.65. The “% S (Survival)” value [28] was 100%, the “RTV (Relative Tumor Volume)” value [28] was 2.94 and the “T/C (T (test)/C (control))” value [28] was 0.57. The “% S (Survival)” value [29] was 100%, the “RTV (Relative Tumor Volume)” value [29] was 2.92 and the “T/C (T (test)/C (control))” value [29] was 0.47. For the same molecule, the “% S (Survival)” value [30] was 100%, the “RTV (Relative Tumor Volume)” value [30] was 5.30 and the “T/C (T (test)/C (control))” value [30] was 0.65. The “tumor growth inhibition vs control” value (dosage optimization, 1 mg/kg body weight daily oral for 4 weeks) was “significantly (P<0.05) inhibited the growth of A549 tumor from day 21 onwards”, the “tumor growth inhibition vs control” value (dosage optimization, 2.5 mg/kg body weight daily oral for 4 weeks) was “significantly (P<0.05) inhibited the growth of A549 tumor from day 21 onwards” and the “tumor growth inhibition vs control” value (dosage optimization, 5 mg/kg body weight daily oral, experimental end point (31st day)) was “did not show any significant suppression of A549 tumor”. The mortality (dosage optimization, 1, 2.5 and 5 mg/kg daily oral) was “did not show any mortality”, the T/C achieved (lung model, 1 mg/kg body weight daily oral) was no more than 0.42 and the “minimum dosage to achieve optimum efficacy” value (oral daily) was 1 mg/kg body weight.
